Values quoted from earlier work, collected in patent publication US7217681B2, “Pesticidal composition and method for fungal control” (Syngenta Crop Protection, Inc., priority 2004, dated 2007).

Tested on: fungi
Details: reported by Burg et al., Ivermectin and Abamectin, 1989

abamectin
anti-bacterial or antifungal activity: no anti-bacterial or antifungal activity
